SMILES strings stand for the structures.

This note sets out measurements from patent US7700593B2, “Imidazo- and triazolo-pyridine compounds and methods of use thereof” (Amgen Inc., priority 2006, dated 2010).

One assay concerns the target p38α (Homo sapiens, UniProt Q16539). In words: p38 in-vitro HTRF enzyme assay. Particulars: IC50 value ranges. The class given is biochemical. The method, boiled down:
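Activated recombinant human p38α with ATP and 100 nM GST-ATF2-Avitag, 1 h at RT in Tris pH 7.5/MgCl2 buffer; compound 10-point 3-fold series from about 1 μM final. HTRF 665/620 nm ratio; IC50 from 4-parameter fit, Ki via Cheng-Prusoff with experimental ATP Km.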
Background: In TR-FRET formats the signal depends on donor and acceptor labels being close together.

A further assay relates to THP1 cells. The assay is described as follows: Lipopolysaccharide-activated THP1 cell TNF production assay. The class given is cell-based, human. The settings on record: Homo sapiens, THP-1; LPS-induced TNF-α production in THP1 cells. The method, boiled down: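 THP1 cells at 1E6/mL were stimulated with LPS (1 μg/mL prepared stock) alongside 3-fold serially diluted compound for 3 h at 37 °C. Secreted TNF-α was quantified by electrochemiluminescence sandwich immunoassay. Percent of DMSO control was fitted to a 4-parameter logistic equation.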

Another assay has as its system monocytes. In words: Lipopolysaccharide-activated monocyte TNF production assay (LPS induced TNF release). The class given is cell-based, human. Particulars: Homo sapiens, Monocyte; LPS induced TNF release from monocytes; read-out: LPS induced TNFa. The gist of the method:
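Adherent monocytes from human PBMCs were pretreated with compound 60 min, then stimulated with E. coli LPS (30 ng/mL stock added) for 4 h at 37 °C. Supernatant TNF-α measured by sandwich ELISA; concentration giving 50% TNF reduction derived by polynomial fit.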

p38α, sequence (Q16539 whole entry): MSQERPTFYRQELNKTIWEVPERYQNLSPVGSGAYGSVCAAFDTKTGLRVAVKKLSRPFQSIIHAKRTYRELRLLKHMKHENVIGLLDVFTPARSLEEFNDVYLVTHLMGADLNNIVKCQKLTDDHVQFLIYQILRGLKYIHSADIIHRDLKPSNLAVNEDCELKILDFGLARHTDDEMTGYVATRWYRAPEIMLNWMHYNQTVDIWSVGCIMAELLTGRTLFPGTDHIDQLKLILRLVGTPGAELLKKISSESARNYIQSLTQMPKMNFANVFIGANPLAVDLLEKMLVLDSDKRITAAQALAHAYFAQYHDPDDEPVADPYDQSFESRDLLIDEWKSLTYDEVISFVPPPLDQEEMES

Consider `Cc1ccc(C(=O)NC2CC2)cc1-c1ccn2c(-c3ccc(F)cc3C)ncc2c1` [Example 22, N-cyclopropyl-3-(3-(4-fluoro-2-methylphenyl)imidazo[1,5-a]pyridin-7-yl)-4-methylbenzamide], for which the IC50 against p38α is < 25 nM; in the assay with THP1 cells it was 25 to 100 nM; in the assay on monocytes, 25 to 100 nM.
With `Cc1ccc(C(=O)Nc2ccnn2C)cc1-c1ccn2c(-c3ccc(F)cc3C)ncc2c1` [Example 23, 3-(3-(4-fluoro-2-methylphenyl)imidazo[1,5-a]pyridin-7-yl)-4-methyl-N-(1-methyl-1H-pyrazol-5-yl)benzamide], the figures for the IC50 against p38α, in the assay with THP1 cells and in the assay on monocytes were < 25 nM, < 25 nM and 25 to 100 nM, respectively.
Take `Cc1ccc(C(N)=O)cc1-c1ccn2c(N)nnc2c1` [Example 24, 3-(3-amino[1,2,4]triazolo[4,3-a]pyridin-7-yl)-4-methylbenzamide]: the IC50 on p38α, with THP1 cells and in the assay on monocytes was 1000 to 5000 nM in each case.
Take `Cc1ccc(C(=O)NC2CC2)cc1-c1ccn2c(CC(C)(C)C)nnc2c1` [Example 25, N-cyclopropyl-3-(3-(2,2-dimethylpropyl)[1,2,4]triazolo[4,3-a]pyridin-7-yl)-4-methylbenzamide]: the IC50 against p38α was < 25 nM; with THP1 cells, 25 to 100 nM; in the assay on monocytes it was 25 to 100 nM.
For `Cc1ccc(C(=O)Nc2ccnn2C)cc1-c1ccn2c(C(C)C)nnc2c1` [Example 28, 4-methyl-3-(3-(1-methylethyl)[1,2,4]triazolo[4,3-a]pyridin-7-yl)-N-(1-methyl-1H-pyrazol-5-yl)benzamide], the values for the IC50 at p38α, in the assay with THP1 cells and in the assay with monocytes were < 25 nM, 100 to 250 nM and 100 to 250 nM, respectively.
For the compound `Cc1ccc(C(=O)NC2CC2)cc1-c1ccn2c(-c3cccnc3)nnc2c1` [Example 29, N-cyclopropyl-4-methyl-3-(3-(3-pyridinyl)[1,2,4]triazolo[4,3-a]pyridin-7-yl)benzamide], the IC50 against p38α, in the assay on THP1 cells and in the assay on monocytes was 100 to 250 nM in each case.
`Cc1ccc(C(=O)Nc2ccnn2C)cc1-c1ccn2c(-c3ccccc3F)nnc2c1` [Example 30, 3-(3-(2-fluorophenyl)[1,2,4]triazolo[4,3-a]pyridin-7-yl)-4-methyl-N-(1-methyl-1H-pyrazol-5-yl)benzamide]: the IC50 is < 25 nM against p38α, 25 to 100 nM in the assay with THP1 cells and 25 to 100 nM with monocytes.
In the case of `Cc1ccc(C(=O)NC2CC2)cc1-c1ccn2c(CC(F)(F)F)nnc2c1` [Example 31, N-cyclopropyl-4-methyl-3-(3-(2,2,2-trifluoroethyl)[1,2,4]triazolo[4,3-a]pyridin-7-yl)benzamide], the IC50 against p38α lay within 25 to 100 nM; with THP1 cells, 100 to 250 nM; in the assay on monocytes it was 250 to 1000 nM.
In the same order, the values of `Cc1ccc(C(=O)NC2CC2)cc1-c1ccn2c(-c3ccccc3C)nnc2c1` [Example 32, N-cyclopropyl-4-methyl-3-(3-(2-methylphenyl)[1,2,4]triazolo[4,3-a]pyridin-7-yl)benzamide] are < 25 nM, 25 to 100 nM and 100 to 250 nM.
In the same order, the values of `Cc1ccc(C(=O)Nc2ccnn2C)cc1-c1ccn2c(-c3cccnc3C)nnc2c1` [Example 33, 4-methyl-N-(1-methyl-1H-pyrazol-5-yl)-3-(3-(2-methyl-3-pyridinyl)[1,2,4]triazolo[4,3-a]pyridin-7-yl)benzamide] are 25 to 100 nM, 100 to 250 nM and 250 to 1000 nM.
In the same order, the values of `Cc1ccc(C(=O)NC2CC2)cc1-c1ccn2c(-c3cccnc3C)nnc2c1` [Example 34, N-cyclopropyl-4-methyl-3-(3-(2-methyl-3-pyridinyl)[1,2,4]triazolo[4,3-a]pyridin-7-yl)benzamide] are 25 to 100 nM, 25 to 100 nM and 100 to 250 nM.
